The structures appear in SMILES notation.

Data on 87 compounds can be found in a melting point compilation (Tetko et al.; mined from patent text by program, amines drawn as free bases though some values may be those of a salt).

Compound `O=C(O)c1cc(C#Cc2ccc(C(=O)O)c(C(=O)O)c2)cc(C(=O)O)n1` yielded a melting point above 300 °C.
As for `CN(C)c1ccc(C(=O)Nc2ccc3ccc(Cl)nc3n2)cc1`, the melting point was found to be 248 °C.
Turning to `CCc1cn2ccccc2c1S(=O)(=O)c1ccc(OCCCn2ccnc2)cc1`, the melting point lay in the range of 130 to 131 °C.
The value for `C=C(F)c1c[nH]c(=O)[nH]c1=O` was 235 to 238 °C; that for `COCc1cc([N+](=O)[O-])ccc1C` was 45 to 49 °C.
The value for `NCCc1c[nH]c2ccc3c(=O)n(CCc4ccccc4)ccc3c12` was 162 to 166 °C.
Take `COC(=O)c1cc(CI)on1`: the melting point lay in the range of 91 to 95 °C.
For `CC(O)C1C(=O)N2C(C(=O)OCc3ccccc3)=C(S(=O)c3ccccc3)CC12` (configuration not stated), the melting point lay within 104 to 109 °C.
`CC1(C)C2CC[C@]1(C)C(=O)C(C(=O)Nc1cc(C(F)(F)F)cc(C(F)(F)F)c1)C2=O` (some centres not stated) returned a melting point of 68 to 72 °C.
As to `C=Cn1cc(C(=O)O)c(=O)c2cc(F)c(-c3ccncc3)nc21`, the melting point is 254 to 257 °C.
`CC(C)(C)OC(=O)Nc1cc(OCC2COC(=O)O2)c(C#Cc2ccccc2)cc1N` (racemic): the melting point was found to be 140 °C.
Compound `CSc1ccc(-c2coc3ccc(-c4nnc([C@H](C)O)o4)cc23)cc1` returned a melting point of 164 to 165 °C.
For the compound `Oc1ccc(N2CCN(CCC3C=Cc4ccccc43)CC2)cc1` (configuration not stated), the melting point is 228 °C.
Regarding `CN(C)C=C(C(=O)c1ccccc1)C(=O)c1ccccc1`, the melting point was determined as 120 °C.
On to `CCCCc1nn(-c2ccc(C(F)(F)F)cn2)cc1CCCOc1c(CC(=O)O)cccc1OC`, for which the melting point fell in the range of 121 to 122 °C.
The value for `CCc1nn(C2CCCC2)c2cc(C(=O)Nc3ccc(C(=O)OC)cc3)ccc12` was 129 to 132 °C; that for `CCOC(=O)c1sc(C)c2nc(OCC)n(Cc3ccc(-c4ccccc4C#N)cc3)c12` was 153 to 155 °C.
In turn, `Cn1c(CO)nc2ccc(Sc3ccccc3)nc21` registered a melting point of 119 to 120 °C.
For `CC(C)(C)OC(=O)NCCNC(=O)c1cc([N+](=O)[O-])ccn1`, the melting point fell in the range of 130 to 131 °C.
The value for `COc1ccc(C=CC(=O)c2ccc(O)cc2)c(OC)c1` was 165 to 166 °C; that for `COc1ccc(OC)c(Cc2nc3ccc(C)cc3c(=O)[nH]2)c1` was 188 to 189 °C.
The value for `CCn1cc(C(=O)O)c(=O)c2cnc(N3CCN(c4ccccc4)CC3)nc21` was 247 to 248 °C.
`Cc1nc(N2CCc3ccccc3CC2)c(C#N)c(=O)n1OC(C)C` showed a melting point of 127 to 128 °C.
In the case of `CC(C(=O)O)c1ccc(C2=CCCCC2)cc1` (configuration not stated), the melting point was in the range of 101 to 102 °C.
As for `COc1cccc2nc(-c3ccc(C)cc3)cc(OCC(=O)N3CCOCC3)c12`, the melting point is 132 °C.
Turning to `COc1ccc(CN2C(=O)C(C)(c3cc(N(C)C(=O)CN(C)C)ccc3Cl)c3cc(Cl)ccc32)c(OC)c1` (configuration not stated), the melting point amounted to 104 °C.
The value for `CC(C)OC(=O)N1CCC(c2nc3cc(-c4ccc(C(N)=O)c(Cl)c4)ccc3o2)CC1` was 178 to 181 °C.
`CC(=O)OC1CCc2c(C3=C(c4cn(C)c5ccccc45)C(=O)OC3=O)c3ccccc3n2C1` (configuration not stated) had a melting point of 272 to 275 °C.
The compound `CC(C)OC(=O)NCNCN=O` displayed a melting point of 66 to 67 °C.
Compound `COc1ccc(S(=O)C(C(=O)NO)c2ccccc2)cc1` (configuration not stated) displayed a melting point of 135 °C.
For `C#CCCOc1cc(N2C(=O)CC(C(F)(F)F)CC2=O)c(F)cc1Cl`, the melting point is 89 to 91 °C.
The value for `CCc1c[nH]c2c3c(ccc12)OCC3` was 91 to 92.5 °C; that for `CC(C)CCCNC1c2ccccc2C(=O)N1c1ccc2ccc(Cl)nc2n1` (configuration not stated) was 131 °C.
The compound `COC1=CC(=O)C(O)=C(CCCCCCCC(O)C(O)CCCCCCCC2=C(O)C(=O)C=C(OC)C2=O)C1=O` (configuration not stated) gave a melting point of 132 to 134 °C.
The compound `COc1ccccc1-c1n[nH]c2ccccc12` yielded a melting point of 99 °C.
In the case of `CN1CCN(C)C(c2ccc(Nc3nc(Br)cn(C)c3=O)cc2)C1=O` (configuration not stated), the melting point fell in the range of 206 to 207 °C.
As to `CC(C)(CO)c1cc(NC(=O)C(C)(C)S(=O)(=O)CCC(F)(F)F)on1`, the melting point was 162 to 163 °C.
`CC(C)(C)OC(=O)c1ccc(Cl)c([N+](=O)[O-])c1` came in with a melting point of 66 to 67 °C.
`C=CCNC(=O)Oc1cc(-n2c(=O)cc(C(F)(F)F)n(C)c2=O)c(F)cc1Cl`: the melting point lay within 98 to 100 °C.
Take `COC(=O)C(C(=O)OC)[C@H]1C=Cc2ccccc2[C@H]1O` (relative stereo): the melting point fell in the range of 65 to 67 °C.
For the compound `COc1ccc(S(=O)(=O)N2CCc3cccc(-c4cc(OC)c(OC)c(OC)c4)c32)cc1`, the melting point lay in the range of 202 to 205 °C.
Turning to `Cc1cc(=O)[nH]c2ccc(C(O)(C(F)(F)F)C(F)(F)F)cc12`, the melting point is 157 to 158 °C.
The value for `O=C1O[C@@H](Cn2ccnn2)CN1c1ccc(-c2ccc(C3=NOC(CS(=O)(=O)CCc4ccncc4)C3)nc2)c(F)c1` (some centres not stated) was 195 °C; that for `Oc1ccccc1-c1cc(-c2ccc3c(c2)OCO3)cc(-c2ccsc2)n1` was 120 to 121 °C.
Consider `c1cc(CN2CCCCC2)cc(OCCCNc2nc3ccccc3[nH]2)c1`, for which the melting point is 146 to 148 °C.
Regarding `COc1ccc(C(=O)Cc2c(Cl)cncc2Cl)c2c(CC(=O)Nc3cccnc3)coc12`, the melting point was in the range of 252 to 255 °C.
On to `CCCCCCCNC(=O)Nc1ccc(-n2ccnc2)cc1C(=O)NCC1CCN(C(c2ccccc2)c2ccccc2)CC1`, for which the melting point is 183 to 185 °C.
The value for `CC(C)c1nc2c([nH]1)C(=O)N1CCN=C1N2Cc1ccccc1Cl` was 250 to 255 °C; that for `O=C1c2ccccc2C(=O)N1CC(=O)N1c2ccccc2N(Cc2ccccc2)C(=O)[C@H]2CCC[C@H]21` (relative stereo) was 247 to 249 °C.
For `CC(C)(C)OC(=O)[C@@H]1CCCN2C(=O)CC[C@H](NC(=O)OCC3c4ccccc4-c4ccccc43)C(=O)N12`, the melting point was in the range of 190 to 192 °C.
`N#Cc1cccc(-c2cnc3[nH]c(=O)n(CC4CCCCC4)c3n2)c1` came in with a melting point of 228 to 230 °C.
`CN(CCCN1c2ccccc2CCc2ccccc21)C(=O)c1cccnc1` registered a melting point of 84 to 86 °C.
In the case of `CC(C)Oc1ccc(F)c(N2C(=O)C3=C(CCCC3)C2=O)c1`, the melting point amounted to 62.8 °C.
Consider `COc1ccc(Br)c(C=O)c1O`, for which the melting point fell in the range of 102 to 103 °C.
With `CS(=O)(=O)c1ccc(Oc2ccccc2CC(=O)O)cc1`, the melting point was in the range of 125 to 127 °C.
As to `O=[N+]([O-])c1ccccc1NCC12CC3CC(CC(C3)C1)C2`, the melting point fell in the range of 106 to 109 °C.
The value for `C[C@H](O)C(=O)N[C@@H]1C(=O)Nc2c(F)cccc2O[C@@H]1C` was 221 to 225 °C; that for `Nc1ccc(S(=O)(=O)N2CCCC(c3ccc(Cl)c(Cl)c3)=N2)cc1` was 232 to 234 °C; that for `Cc1c(C=CC#N)c2c(c(C)c1OCc1ccccc1)CCC(C)(C)O2` was 108 °C.
The compound `CCC1C(C)=NN=C(c2ccc(OC)c(OC)c2)c2cc(OC)c(O)cc21` (configuration not stated) yielded a melting point of 210 to 212 °C.
Compound `COc1ccc(S(=O)(=O)C(CC(=O)NO)c2ccccc2)cc1` (configuration not stated) yielded a melting point of 157 to 159 °C.
Compound `Cc1cc(-c2nc3cccnn3c2-c2ccnc(NC(=O)c3ccc(Cl)nc3)c2)ccc1F` yielded a melting point of 225 to 226 °C.
As to `COc1cccc2cc(CNCCNC(=O)C(C)(C)C)oc12`, the melting point lay in the range of 81 to 82 °C.
The value for `CCOCc1nc2c(N)nc3ccccc3c2n1CC1CC(c2ccccc2)N(C)O1` (configuration not stated) was 162 to 163 °C; that for `COC1Cc2ccc(F)cc2/C1=C/C(N)=O` (configuration not stated) was 128 to 130 °C; that for `OC(c1cc(Cl)cc(Cl)c1)C(F)(F)C(F)(F)F` (configuration not stated) was 71 to 73 °C.
The compound `COc1cccc(CC(=O)O)c1OCCCc1cn(-c2ccc(C(F)(F)F)nn2)nc1C(C)C` registered a melting point of 92 to 93 °C.
The compound `CCOC(=O)C=Cc1ccc(Oc2c(-c3ccc(OC)cc3)ccc3cc(OC)ccc23)cc1` registered a melting point of 94 to 97 °C.
As to `COc1ccc(S(=O)(=O)C(C)(Cc2ccc(-c3ccccc3)cc2)C(=O)NO)cc1` (configuration not stated), the melting point turned out to be 177 °C.
The value for `Nc1cccc2c1CCNC2` was 153 to 154 °C.
As to `CCCCc1ncc(C(=O)OCC)c(=O)n1Cc1ccc(-c2ccccc2-c2nnn[nH]2)cc1`, the melting point was in the range of 168 to 173 °C.
With `Nc1ccc(N2CCCC2)nn1`, the melting point was 209 to 211 °C.
`CC(C)C(O)C(O)C(O)C(CC1CCCCC1)NC(=O)OC(C)(C)C` (configuration not stated): the melting point is 151 to 152 °C.
`CCCc1nn(CC)c2c(=O)[nH]c(-c3ccccc3OCC)nc12` yielded a melting point of 114 to 115 °C.
Take `CCOC(=O)CC(=O)c1cccc([N+](=O)[O-])c1C`: the melting point was in the range of 50 to 51 °C.
For the compound `CCOC(=O)CN1C(=O)C(NC(=O)OCc2ccccc2)N=C(c2ccccc2)c2ccccc21` (configuration not stated), the melting point fell in the range of 65 to 66 °C.
As for `CN1CCN(C(=O)OC2c3ccc(C(F)(F)F)cc3C(=O)N2c2ccc3ccc(Cl)nc3n2)CC1` (configuration not stated), the melting point was 219 °C.
Compound `C/C(=C/C(=O)N(C)O)c1ccn(-c2c(C)cccc2C)c1` yielded a melting point of 158 to 160 °C.
`COc1ccc2c(c1)N(CC(=O)O)C(=O)C(N)CC2` (configuration not stated) showed a melting point above 300 °C.
Compound `Cc1c(NC(=O)c2ccc(-c3ccc(C(F)(F)F)cc3)cc2)ccc2cc(CN3CCCC3)cnc12` came in with a melting point of 220 to 222 °C.
For the compound `COc1ccc(/C=N/Nc2ccccn2)cc1OC1CCCC1`, the melting point fell in the range of 142 to 143 °C.
For the compound `CCCc1c2nc(C(=O)OCC)ccc2cc2c(=O)cc(C(=O)OCC)oc12`, the melting point fell in the range of 168 to 171 °C.
`COC(=O)c1c2c(c3cc4c(cc3c1-c1ccc(OC)c(OC)c1)OCO4)OCOC2=O` displayed a melting point of 168 to 170 °C.
As to `Clc1cc(Cl)n2nc(SCc3ccccc3)nc2n1`, the melting point is 97 to 100 °C.
`O=CNc1nc(CSc2ccncc2)cs1` registered a melting point of 182 to 184 °C.
Consider `CC(C)[C@H](NC(=O)OCc1ccccc1)C(=O)NC(Cc1ccccc1)C(O)C(Cc1ccccc1)NC(=O)[C@@H](NC(=O)OCc1ccccn1)C(C)C` (some centres not stated), for which the melting point is 194 to 195 °C.
Regarding `Cc1cn(C(c2ccccc2)c2ccc(Cl)c([N+](=O)[O-])c2)cn1` (configuration not stated), the melting point is 105 °C.

Usually melting point stands for the temperature of the solid-liquid transition.
